Reference: US12576050B2, “Dosage regime” (priority 2018, dated 2026)

Key:
blood leukocytes = experiment: CARE-CF-1 trial: blood leukocyte count (WCC); format: in vivo, people with CF
[1] = tested on: Gram −ve organisms in sputum; experiment: CARE-CF-1 trial: sputum bacterial load; format: in vivo, people with CF; settings: for Sputum Gram −ve organisms, Day 21 change from baseline, mean: 14 day course; for Sputum Gram −ve organisms, Day 14 LSMD (cysteamine − placebo): MMRM, ITT; for Sputum Gram −ve organisms, D 14 mean: with standard of care
[2] = tested on: P. aeruginosa isolate from CF sputum; experiment: Kirby Bauer antibiotic disc sensitivity on agar containing cysteamine; format: cell-based
Source text: Legend: […], I, R=sensitive, intermediate or resistant by interpretive criteria for antibiotic disc sensitivity testing method against P. aeruginosa. No criteria for sulphonamides against P. aeruginosa, however Bactrim/co-trimoxazole sometimes used in CF therefore included here with interpretive criteria for Stenotrophomonas. *=p<0.05 two-way ANOVA Sidak's multiple comparison test.
(§1) As a result, the patient was taken off regimen of ceftolozane+tazobactam, Colomycin and Pulmozyme and put onto 14-day course of cysteamine 450 mg BID (bi-daily) with Tobramycin and Colomycin. Patient was discharged from hospital 3-days later.

CF patient = experiment: Single patient treated with cysteamine 450 mg bi-daily plus antibiotics; format: in vivo; settings: cysteamine 450 mg BID with Tobramycin and Colomycin, one patient
Experimental: as §1, with “Patient trialled with combination treatment of 450 mg bi-daily in combination with antibiotics. […] As” for “As”

[3] = tested on: P. aeruginosa isolated from sputum from a CF patient; experiment: Alginate production by sputum isolates (Alcian Blue assay); format: cell-based
Experimental: Isolate A produced 19.93 μg/ml (+/−1.9 SD) alginate and had mucoid phenotype. Isolate B produced 4.47 μg/ml (+/−2.39 SD) with dry colonies.
Results provided in FIG. 5 were derived from a study that conforms to the general quantitative assay described in J. Phycol. 13, 345-348 (1977) “Alcian Blue: A Quantitative Aqueous Assay for Algal Acid and Sulfated Polysaccharides”; J Ramus.

[4] = tested on: people with CF experiencing an acute exacerbation; settings: adjunct to treatment of exacerbations, 14 days
[5] = tested on: people with CF experiencing an acute exacerbation; experiment: CARE-CF-1 trial: PROM CFQ-R score; format: in vivo; settings: 450 doses, day 14; greatest for 450 BID
[6] = tested on: people with CF experiencing an acute exacerbation; experiment: CARE-CF-1 trial: PROM CFRSD-CRISS score; format: in vivo; settings: for CFRSD-CRISS score, Day 7 LSMD (cysteamine − placebo) / CFRSD-CRISS score, Day 14 LSMD (cysteamine − placebo): MMRM, ITT

## NCCS [Cysteamine, cysteamine]
Blood leukocytes; 150 mg tid
  Blood Leukocyte Count, D 14 mean: 9.71e+09 L⁻¹
  Blood Leukocyte Count, D 14 Δbaseline mean: -2.64e+09 L⁻¹
Blood leukocytes; 150 mg tid, p 1.00
  Blood Leukocyte Count, D 14 Δ −placebo mean: 0 L⁻¹
Blood leukocytes; 300 mg tid
  Blood Leukocyte Count, D 14 mean: 1.055e+10 L⁻¹
  Blood Leukocyte Count, D 14 Δbaseline mean: -1.9e+08 L⁻¹
Blood leukocytes; 300 mg tid, p 0.84
  Blood Leukocyte Count, D 14 Δ −placebo mean: -2.4e+08 L⁻¹
Blood leukocytes; 450 mg bid
  Blood Leukocyte Count, D 14 mean: 7.45e+09 L⁻¹
  Blood Leukocyte Count, D 14 Δbaseline mean: -3.41e+09 L⁻¹
Blood leukocytes; 450 mg bid, p 0.033
  Blood Leukocyte Count, D 14 Δ −placebo mean: -2.43e+09 L⁻¹
Blood leukocytes; 450 mg qd
  Blood Leukocyte Count, D 14 mean: 8.52e+09 L⁻¹
  Blood Leukocyte Count, D 14 Δbaseline mean: -2.22e+09 L⁻¹
Blood leukocytes; 450 mg qd, p 0.22
  Blood Leukocyte Count, D 14 Δ −placebo mean: -1.49e+09 L⁻¹
Blood leukocytes; 450 mg tid
  Blood Leukocyte Count, D 14 mean: 9.79e+09 L⁻¹
  Blood Leukocyte Count, D 14 Δbaseline mean: -4.06e+09 L⁻¹
Blood leukocytes; 450 mg tid, p 0.33
  Blood Leukocyte Count, D 14 Δ −placebo mean: -1.11e+09 L⁻¹
[1]; 150 mg TID
  Sputum Gram −ve organisms, Day 21 change from baseline, mean: −0.26 log10 CFU/ml
[1]; 150 mg TID, p 0.9753
  Sputum Gram −ve organisms, Day 14 LSMD (cysteamine − placebo): 0.03 log10 CFU/ml
[1]; 150 mg TID, p 0.9511
  Sputum Gram −ve organisms, Day 21 LSMD (cysteamine − placebo): 0.05 log10 CFU/ml
[1]; 150 mg tid
  Sputum Gram −ve organisms, Day 14 change from baseline, mean: −1.24 log10 CFU/ml
[1]; 150 mg tid for 14 days
  Sputum Gram −ve organisms, D 14 mean: 5.08 log10 CFU/ml
[1]; 150 mg tid, p 0.97
  Sputum Gram −ve organisms, D 14 Δ −placebo mean: 0.03 log10 CFU/ml
[1]; 300 mg TID
  Sputum Gram −ve organisms, Day 21 change from baseline, mean: −0.87 log10 CFU/ml
[1]; 300 mg TID, p 0.3683
  Sputum Gram −ve organisms, Day 14 LSMD (cysteamine − placebo): 0.82 log10 CFU/ml
[1]; 300 mg TID, p 0.7802
  Sputum Gram −ve organisms, Day 21 LSMD (cysteamine − placebo): −0.24 log10 CFU/ml
[1]; 300 mg tid
  Sputum Gram −ve organisms, Day 14 change from baseline, mean: −0.98 log10 CFU/ml
[1]; 300 mg tid for 14 days
  Sputum Gram −ve organisms, D 14 mean: 6.14 log10 CFU/ml
[1]; 300 mg tid, p 0.36
  Sputum Gram −ve organisms, D 14 Δ −placebo mean: 0.87 log10 CFU/ml
[1]; 450 mg BID
  Sputum Gram −ve organisms, Day 21 change from baseline, mean: −1.04 log10 CFU/ml
[1]; 450 mg BID, p 0.4165
  Sputum Gram −ve organisms, Day 14 LSMD (cysteamine − placebo): 0.72 log10 CFU/ml
[1]; 450 mg BID, p 0.6117
  Sputum Gram −ve organisms, Day 21 LSMD (cysteamine − placebo): −0.41 log10 CFU/ml
[1]; 450 mg QD
  Sputum Gram −ve organisms, Day 21 change from baseline, mean: −1.22 log10 CFU/ml
[1]; 450 mg QD, p 0.4445
  Sputum Gram −ve organisms, Day 14 LSMD (cysteamine − placebo): 0.72 log10 CFU/ml
[1]; 450 mg QD, p 0.0799
  Sputum Gram −ve organisms, Day 21 LSMD (cysteamine − placebo): −1.56 log10 CFU/ml
[1]; 450 mg TDD: 450 mg QD − 150 mg TID
  Sputum Gram −ve organisms, Day 14 LSMD (cysteamine QD/BID − TID): 0.69 log10 CFU/ml
[1]; 450 mg TID
  Sputum Gram −ve organisms, Day 21 change from baseline, mean: 0.93 log10 CFU/ml
[1]; 450 mg TID, p 0.0602
  Sputum Gram −ve organisms, Day 14 LSMD (cysteamine − placebo): 1.57 log10 CFU/ml
[1]; 450 mg TID, p 0.2130
  Sputum Gram −ve organisms, Day 21 LSMD (cysteamine − placebo): 0.99 log10 CFU/ml
[1]; 450 mg bid
  Sputum Gram −ve organisms, Day 14 change from baseline, mean: −1.32 log10 CFU/ml
[1]; 450 mg bid for 14 days
  Sputum Gram −ve organisms, D 14 mean: 6.25 log10 CFU/ml
[1]; 450 mg bid, p 0.61
  Sputum Gram −ve organisms, D 14 Δ −placebo mean: 0.46 log10 CFU/ml
[1]; 450 mg qd
  Sputum Gram −ve organisms, Day 14 change from baseline, mean: 0.12 log10 CFU/ml
[1]; 450 mg qd for 14 days
  Sputum Gram −ve organisms, D 14 mean: 4.49 log10 CFU/ml
[1]; 450 mg qd, p 0.36
  Sputum Gram −ve organisms, D 14 Δ −placebo mean: 0.90 log10 CFU/ml
[1]; 450 mg tid
  Sputum Gram −ve organisms, Day 14 change from baseline, mean: 0.33 log10 CFU/ml
[1]; 450 mg tid for 14 days
  Sputum Gram −ve organisms, D 14 mean: 6.27 log10 CFU/ml
[1]; 450 mg tid, p 0.059
  Sputum Gram −ve organisms, D 14 Δ −placebo mean: 1.66 log10 CFU/ml
[1]; 900 mg TDD: 450 mg BID − 300 mg TID
  Sputum Gram −ve organisms, Day 14 LSMD (cysteamine QD/BID − TID): −0.11 log10 CFU/ml
[2]; Müller Hinton agar containing cysteamine compared with agar alone
  Zone of clearance and sensitivity to sulphonamides: significant increase
[2]; in vitro, patient isolate (FIG. 8)
  Sensitivity to various antibiotics in combination with cysteamine: increased sensitivity
CF patient
  Time to discharge from hospital: 3 days
[3]; exposure to cysteamine
  Production of alginate/extracellular polysaccharide in mucoid strains: inhibited
[3]; isolate B, day 14 of 450 mg BID cysteamine, 120 h growth in MHB at 37° C., day 0 isolate A 19.93 μg/ml, mucoid
  Alginate production: 4.47 µg/mL
[3]; isolate B, day 14 of 450 mg BID cysteamine, day 0 isolate mucoid
  Colony phenotype of isolate: dry colonies
[4]
  Safety and tolerability: safe and reasonably well tolerated
[5]
  CFQR PROM score: non-significant improvements
[6]; 150 mg TID
  CFRSD-CRISS score, Day 7 change from baseline, mean: −11.9
[6]; 150 mg TID, p 0.1991
  CFRSD-CRISS score, Day 7 LSMD (cysteamine − placebo): 4.25
[6]; 150 mg TID, p 0.9098
  CFRSD-CRISS score, Day 14 LSMD (cysteamine − placebo): 0.57
[6]; 150 mg tid
  CFRSD-CRISS score, D 14 mean: 32.4
  CFRSD-CRISS score, Day 14 change from baseline, mean: −15.5
[6]; 150 mg tid, p 0.87
  CFRSD-CRISS score, D 14 Δ −placebo mean: 0.8
[6]; 300 mg TID
  CFRSD-CRISS score, Day 7 change from baseline, mean: −10.5
[6]; 300 mg TID, p 0.0474
  CFRSD-CRISS score, Day 7 LSMD (cysteamine − placebo): 6.48
[6]; 300 mg TID, p 0.6439
  CFRSD-CRISS score, Day 14 LSMD (cysteamine − placebo): 2.32
[6]; 300 mg tid
  CFRSD-CRISS score, D 14 mean: 34.2
  CFRSD-CRISS score, Day 14 change from baseline, mean: −14.8
[6]; 300 mg tid, p 0.70
  CFRSD-CRISS score, D 14 Δ −placebo mean: 1.9
[6]; 450 mg BID
  CFRSD-CRISS score, Day 7 change from baseline, mean: −19.1
[6]; 450 mg BID, p 0.0496
  CFRSD-CRISS score, Day 14 LSMD (cysteamine − placebo): −9.85
[6]; 450 mg BID, p 0.8081
  CFRSD-CRISS score, Day 7 LSMD (cysteamine − placebo): −0.78
[6]; 450 mg QD
  CFRSD-CRISS score, Day 7 change from baseline, mean: −18.1
[6]; 450 mg QD, p 0.1814
  CFRSD-CRISS score, Day 14 LSMD (cysteamine − placebo): −7.36
[6]; 450 mg QD, p 0.7569
  CFRSD-CRISS score, Day 7 LSMD (cysteamine − placebo): −1.10
[6]; 450 mg TDD: 450 mg QD − 150 mg TID, p 0.1725
  CFRSD-CRISS score, Day 14 LSMD (cysteamine QD/BID − TID): −7.94
[6]; 450 mg TID
  CFRSD-CRISS score, Day 7 change from baseline, mean: −17.8
[6]; 450 mg TID, p 0.2097
  CFRSD-CRISS score, Day 14 LSMD (cysteamine − placebo): −6.27
[6]; 450 mg TID, p 0.7324
  CFRSD-CRISS score, Day 7 LSMD (cysteamine − placebo): 1.11
[6]; 450 mg bi-daily compared with the other doses (FIG. 6)
  Improvements in CFRSD-CRISS domains: best improvements
[6]; 450 mg bid
  CFRSD-CRISS score, D 14 mean: 25.4
  CFRSD-CRISS score, Day 14 change from baseline, mean: −28.1
[6]; 450 mg bid, p 0.035
  CFRSD-CRISS score, D 14 Δ −placebo mean: −10.6
[6]; 450 mg qd
  CFRSD-CRISS score, D 14 mean: 26.1
  CFRSD-CRISS score, Day 14 change from baseline, mean: −24.3
[6]; 450 mg qd, p 0.090
  CFRSD-CRISS score, D 14 Δ −placebo mean: −9.0
[6]; 450 mg tid
  CFRSD-CRISS score, D 14 mean: 31.6
  CFRSD-CRISS score, Day 14 change from baseline, mean: −23.9
[6]; 450 mg tid, p 0.34
  CFRSD-CRISS score, D 14 Δ −placebo mean: −4.8
[6]; 900 mg TDD: 450 mg BID − 300 mg TID, p 0.0222
  CFRSD-CRISS score, Day 14 LSMD (cysteamine QD/BID − TID): −12.17
[6]; 450 BID dose
  CRISS score at day 14 compared with standard of care plus placebo: significant improvement over and above placebo
[6]; 450 BID versus 900 mg as 3 times 300 mg (FIG. 9)
  Potentiation of other antibiotics (CRISS, post-hoc): potentiates other antibiotics more than the 300 mg three times a day dosage regime
[6]; 450 dose regimen, including 450 BID, post-hoc
  CRISS versus placebo group across all concomitant antibiotics examined: non-significant improvements
[6]; across all cysteamine treatment regimens, post-hoc
  CRISS versus placebo, patients not receiving azithromycin: significantly better than placebo
[6]; other 450 doses (qd, tid)
  CRISS score at day 14 compared with placebo: non-significant reductions
